Measurements taken from publication PMC6511062, “Preclinical candidate for the treatment of visceral leishmaniasis that acts through proteasome inhibition” (Proceedings of the National Academy of Sciences of the …, 2019).
“Also recorded” adds a separate entry of the source.

Assays:
[1] = system: trypsin activity of the L. donovani proteasome; assay: Proteasome activity assay, trypsin-like, L. donovani; type: biochemical, Leishmania donovani
Description: (§1) k. Proteasome activity assays
(§2) Compounds were dispensed into black 384-well assay plates (Greiner) by acoustic dispensing (LabCyte ECHO). For potency determinations, eleven-point, one in three dilution curves were generated, with a top concentration of 100 µM. Three proteasome activities were measured using a commercially available indirect enzyme-based luminescent assay kit (Promega) with Suc-LLVY-aminoluciferin, Z-LRR-aminoluciferin and Z-nLPnLD-aminoluciferin used as substrates for chymotrypsin-like, trypsin-like and caspase-like activities, respectively. In addition to proteasome samples: L. donovani and THP1-enriched proteasomes, commercially available human purified 26S proteasome (Boston Biochem) was also assessed. Proteasome final assay concentration were 0.025 mg/ml for L. donovani and THP1-enriched proteasomes and 1 nM for human purified 26S proteasome. Proteasome solution was added to the plates containing the compounds one hour before adding the proteasome substrate solution.
Substrate solution was then added and after 30 min of incubation luminescent signal was measured in an Envision reader (PerkinElmer).
Cultures of L. donovani axenic amastigotes were diluted to either 8 x 106 or 8 x 107 […]
value. […]
(§3) value) were used as negative and positive controls, respectively. […] Protein concentrations were determined by standard Bradford assays and Laemmli sample buffer was added to samples. […]

[2] = system: L. donovani proteasome β subunits; assay: Activity-based probe (UbiQ-018) labelling of L. donovani proteasome; type: binding, Leishmania donovani; details: 100 µM
Description: m. Activity-Based Probe Labelling of THP1 and L. donovani proteasome
Proteasome enriched fractions from THP1 (20 µg), L. donovani (10 µg) and L. donovani […]
µM for 1 h. Proteasome enriched fractions were also incubated with DMSO as control.
For all proteasome labelling experiments, the active-site probe Me4BodipyFL-Ahx3Leu3VS (UbiQ-018) was used at final concentration of 500 nM in sucrose buffer (50 mM Tris buffer pH 7.5, 5 mM magnesium chloride, 1 mM EDTA, 50 mM NaCl, 250 mM sucrose, 2 mM ATP, 1 mM DTT). Proteasome enriched fractions treated with […]
DMSO or test compounds, were incubated with the probe for 2h at RT. Samples were then denatured by addition of Laemmli sample buffer, heated to 95°C for 10 min and separated by electrophoresis on a 15% SDS-PAGE acrylamide gel. Following separation, gels were scanned in the fluorescein channel of a ChemiDoc reader (λ excitation/emission = 480/530 nm). Fluorescent proteins were excised and MALDI– TOF analysis carried out by the FingerPrints Proteomics service at the University of […]
10. Measuring Proteolytic activity of Leishmania tarentolae Proteasome […]
pre-prepared as a 10 mM stocks in 100 % DMSO and then diluted 1 in 3, over 11 points, prior to dispense of 100 nl of each dilution series into black, low volume, 384-well microplates. Proteasome was prepared as a 0.5 µg/mL working solution in assay buffer (50 mM HEPES (pH 7.5), 150 mM NaCl, 5 mM MgCl2, 5% glycerol, 1 mM CHAPS) and 5 µL was added using a Multidrop Micro (Thermo Fisher Scientific) to all wells containing compound dilutions on the test microplates. The microplates were then centrifuged for 1 min at 1000 rpm and incubated for 15 mins at 25 °C, prior to an assay initiating addition of 5 µl of fluorogenic substrate, which had been prepared as a 1 µM […]
The assay microplates were then centrifuged for 10 secs before using a Tecan M1000 Pro to monitor the increase of fluorescent intensity at 25 °C by excitation of the liberated Rhodamine110 at 485 nm and emission at 535 nm every 125 secs for 20 cycles. […]
calculate initial rates of reactions for all assay wells on the microplate by fitting to a linear regression model. The initial rates of reaction for all compound concentrations tested were normalised to the initial rates determined for 16 replicate control wells per microplate of both uninhibited reaction and no-proteasome background, and subsequently, IC50 values were determined by fitting the normalised data to the following four-parameter logistic model; y = a + (( b – a) / ( 1 + ( 10 ^ x / 10 ^ c ) ^ d ), where ‘a’ is the minimum, ‘b’ is […], ‘c’ is the IC50 and ‘d’ is […].
11. Cryo-EM of 20S Leishmania tarentolae proteasome a. Purification of 20S Leishmania tarentolae proteasome. […]

[3] = system: ubiquitylated proteins in L. donovani axenic amastigotes; assay: Western blot of ubiquitylated proteins in axenic amastigotes; type: cell-based, Leishmania donovani; details: dose-dependent
Description: as §1
as §2, with “Proteasome solution was added to the plates containing the compounds one hour before adding the proteasome substrate solution.” left out
Substrate solution was then added and after 30 min of incubation luminescent signal was measured in an Envision reader (PerkinElmer). […]
as §3
Figure S6. […] Ubiquitin proteins were detected using the human anti-ubiquitin P4D1 antibody diluted 1:1,000. […]

O=C(Nc1ccc(F)c(-c2ccn3c(N4CCOCC4)cnc3n2)c1)N1CCCC1 [Compound 8]
effect on trypsin activity [1]: no effect
UbiQ-018 labelling of proteasome subunits ([2]; L. donovani WT extracts): selectively blocks labeling of β5; also recorded: selectively blocked UbiQ-018 labeling of the β5 subunit
UbiQ-018 labelling of proteasome subunits ([2]; L. donovani-resistant RES II extracts): could not be abolished
accumulation of ubiquitylated proteins [3]: dose-dependent manner; also recorded: induces the accumulation of ubiquitylated proteins
